We go through 18 molecules from ChEMBL document CHEMBL3085716, “Hytramycins V and I, anti-Mycobacterium tuberculosis hexapeptides from a Streptomyces hygroscopicus strain” (J Nat Prod, 2013).

≈ marks a conversion by molar mass, not a printed value. Some results are limits rather than exact numbers.

In test [1] the test system is Mycobacterium tuberculosis. Description: Antimycobacterial activity against Mycobacterium tuberculosis H37Rv under normoxic condition after 7 days by MABA assay. It is filed as functional. For orientation: The colour change of resazurin is a common sign of viable cells or microbes.
Test [2] has as its system Pseudomonas aeruginosa. Description: Antibacterial activity against Pseudomonas aeruginosa ATCC 27853 after 16 hrs. It is filed as functional. The note with it: for MIC90: ATCC 27853, 16 h.
The subject of test [3] is Candida albicans. Description: Antifungal activity against Candida albicans ATCC 10231 after 48 hrs. The format is functional. The settings on record: ATCC 10231, 48 h.
Test [4] deals with Enterococcus faecalis. Description: Antibacterial activity against Enterococcus faecalis ATCC 29212 after 16 hrs. It is filed as functional. The note with it: ATCC 29212, 16 h.
Test [5] concerns Mycolicibacterium smegmatis. Description: Antimycobacterial activity against Mycobacterium smegmatis ATCC 700084 under normoxic condition after 72 hrs by MABA assay. It is filed as functional. The note with it: ATCC 700084, 72 h.
For test [6], the system named is Acinetobacter baumannii. Description: Antibacterial activity against Acinetobacter baumannii ATCC BAA-747 after 16 hrs. The format is functional. The note with it: for MIC90: ATCC BAA-747, 16 h.
Test [7] has as its system Streptococcus pneumoniae. Description: Antibacterial activity against Streptococcus pneumoniae ATCC 49619 after 20 hrs. It is filed as functional. The note with it: ATCC 49619, 20 h.
Test [8] relates to Mycobacterium tuberculosis. Description: Antimycobacterial activity against Mycobacterium tuberculosis clinical isolate X003899 under normoxic condition after 7 days by MABA assay. It is filed as functional. The settings on record: clinical isolate X003899, 168 h.
The subject of test [9] is Mycobacterium tuberculosis. Description: Antimycobacterial activity against Mycobacterium tuberculosis H37Rv under normoxic condition after 7 days by MABA assay in presence of 4% bovine serum albumin. It is filed as functional. The settings on record: 168 h.
Test [10] deals with Mycobacterium tuberculosis. Description: Antimycobacterial activity against Mycobacterium tuberculosis clinical isolate X005282 under normoxic condition after 7 days by MABA assay. The format is functional. The note with it: clinical isolate X005282, 168 h.
Test [11] has as its system Mycobacterium tuberculosis. Description: Antimycobacterial activity against Mycobacterium tuberculosis clinical isolate X001354 under normoxic condition after 7 days by MABA assay. The format is functional. The note with it: clinical isolate X001354, 168 h.
Test [12] relates to Mycobacterium tuberculosis. Description: Antimycobacterial activity against Mycobacterium tuberculosis clinical isolate X004244 under normoxic condition after 7 days by MABA assay. It is filed as functional. The settings on record: clinical isolate X004244, 168 h.
The test system of test [13] is Mycobacterium tuberculosis. Description: Antimycobacterial activity against Mycobacterium tuberculosis clinical isolate X005319 under normoxic condition after 7 days by MABA assay. The settings on record: clinical isolate X005319, 168 h. The format is functional.
For test [14], the system named is Mycobacterium tuberculosis. Description: Antimycobacterial activity against Mycobacterium tuberculosis H37Rv under normoxic condition after 7 days by MABA assay in presence of 10% fetal bovine serum. The format is functional. The settings on record: 168 h.
For test [15], the system named is Mycobacterium tuberculosis. Description: Antimycobacterial activity against Mycobacterium tuberculosis clinical isolate X004439 under normoxic condition after 7 days by MABA assay. It is filed as functional. The note with it: clinical isolate X004439, 168 h.
The subject of test [16] is Vero. Description: Cytotoxicity against african green monkey Vero cells. It is filed as cell-based. The settings on record: Chlorocebus sabaeus.
For test [17], the system named is Escherichia coli. Description: Antibacterial activity against Escherichia coli ATCC 25922 after 16 hrs. The format is functional.
The test system of test [18] is Staphylococcus aureus. Description: Antibacterial activity against Staphylococcus aureus ATCC 29213 after 16 hrs. The format is functional.
[19] abbreviates: Mycobacterium tuberculosis, H37Rv, 168 h.

Broadly, the MIC is the lowest concentration found to suppress growth. For the molecule `CC(C)[C@H]1NC(=O)[C@@H]2C[C@@]3(O)c4ccc(Cl)cc4N[C@H]3N2C(=O)[C@H]2CCCNN2C(=O)[C@H](C)N(C)C(=O)[C@H]2CCCNN2C(=O)[C@@H]2CCCNN2C1=O`, in test [1] (setting [19]), the MIC was determined as 18.6 µg/mL (≈ 24.6 µM).
By MIC90 is commonly meant an inhibitory concentration at the 90% level, which refers to growth in some studies and to a panel of isolates in others. `NCC[C@H](O)C(=O)N[C@@H]1C[C@H](N)[C@@H](O[C@H]2O[C@H](CN)[C@@H](O)[C@H](O)[C@H]2O)[C@H](O)[C@H]1O[C@H]1O[C@H](CO)[C@@H](O)[C@H](N)[C@H]1O` [AMIKACIN]: the MIC90 in [2] was 1.8 µg/mL (≈ 3.07 µM).
For `C[C@@H]1[C@H](O)[C@@H](C)/C=C/C=C/C=C/C=C/C=C/C=C/C=C/[C@H](O[C@@H]2O[C@H](C)[C@@H](O)[C@H](N)[C@@H]2O)C[C@@H]2O[C@](O)(C[C@@H](O)C[C@@H](O)[C@H](O)CC[C@@H](O)C[C@@H](O)CC(=O)O[C@H]1C)C[C@H](O)[C@H]2C(=O)O` [AMPHOTERICIN B], the MIC90 in [3] was 0.4 µg/mL (≈ 0.433 µM).
For `O=C(O)c1cn(C2CC2)c2cc(N3CCNCC3)c(F)cc2c1=O` [CIPROFLOXACIN], the MIC90 was 0.2 µg/mL (≈ 0.604 µM) in [2] and 4.9 µg/mL (≈ 14.8 µM) in test [4].
Turning to `CC(C)/N=c1\cc2n(-c3ccc(Cl)cc3)c3ccccc3nc-2cc1Nc1ccc(Cl)cc1` [CLOFAZIMINE], the MIC90 in test [5] came out at 1.1 µg/mL (≈ 2.32 µM).
In the case of `CN(C)[C@@H]1C(O)=C(C(N)=O)C(=O)[C@@]2(O)C(O)=C3C(=O)c4c(O)ccc(Cl)c4[C@@H](O)[C@H]3C[C@@H]12` [DEMECLOCYCLINE], in test [6], the MIC90 is 0.1 µg/mL (≈ 0.215 µM).
Still for that read-out and setting: to `C[C@H]1c2cccc(O)c2C(=O)C2=C(O)[C@]3(O)C(=O)C(C(N)=O)=C(O)[C@@H](N(C)C)[C@@H]3[C@@H](O)[C@@H]21.O` [DOXYCYCLINE] belongs 0.1 µg/mL.
Regarding `CC[C@H]1OC(=O)[C@H](C)[C@@H](O[C@H]2C[C@@](C)(OC)[C@@H](O)[C@H](C)O2)[C@H](C)[C@@H](O[C@@H]2O[C@H](C)C[C@H](N(C)C)[C@H]2O)[C@](C)(O)C[C@@H](C)C(=O)[C@H](C)[C@@H](O)[C@]1(C)O` [ERYTHROMYCIN], the values for the MIC90 in [7] and in test [4] were 0.1 µg/mL (≈ 0.136 µM) and 1.9 µg/mL (≈ 2.59 µM), respectively.
For the molecule `NNC(=O)c1ccncc1` [ISONIAZID], the MIC90 is 0.03 µg/mL (≈ 0.219 µM) in test [1] (setting [19]); 0.1 µg/mL (≈ 0.729 µM) in test [8]; 0.1 µg/mL in [9]; 0.1 µg/mL (≈ 0.729 µM) in test [10]; 0.1 µg/mL (≈ 0.729 µM) in test [11]; above 1.1 µg/mL in test [12]. Further, the MIC90 worked out at 12.7 µg/mL (≈ 92.6 µM) in test [5], 0.9 µg/mL (≈ 6.56 µM) in [13], 0.04 µg/mL in test [14] and 0.1 µg/mL (≈ 0.729 µM) in [15].
Take `NC[C@H]1O[C@H](O[C@H]2[C@H](O)[C@@H](O[C@H]3O[C@H](CO)[C@@H](O)[C@H](N)[C@H]3O)[C@H](N)C[C@@H]2N)[C@H](O)[C@@H](O)[C@@H]1O` [KANAMYCIN]: the MIC90 in test [6] came to 0.7 µg/mL (≈ 1.44 µM).
On to `CC(=O)N1CCN(c2ccc(OCC3COC(Cn4ccnc4)(c4ccc(Cl)cc4Cl)O3)cc2)CC1` (stereo unspecified) [KETOCONAZOLE], for which the MIC90 in test [3] is below 0.004 µg/mL.
For the molecule `Cc1ncc([N+](=O)[O-])n1CCO` [METRONIDAZOLE], the MIC90 in test [1] (setting [19]), in test [8], in test [9], in test [10], in [11] and in test [12] was above 87.6 µg/mL throughout. Further, the MIC90 in test [13], in test [14] and in [15] was above 87.6 µg/mL each time.
`CN(C)c1ccc(O)c2c1C[C@H]1C[C@H]3[C@H](N(C)C)C(O)=C(C(N)=O)C(=O)[C@@]3(O)C(O)=C1C2=O` [MINOCYCLINE] returned an MIC90 in test [6] of 0.2 µg/mL (≈ 0.437 µM).
Turning to `CC1COc2c(N3CCN(C)CC3)c(F)cc3c(=O)c(C(=O)O)cn1c23` (stereo unspecified) [OFLOXACIN], the MIC90 in test [7] stood at 1.1 µg/mL (≈ 3.04 µM); in test [2] it was 1.2 µg/mL (≈ 3.32 µM); in test [4], 2.3 µg/mL (≈ 6.36 µM).
Usually IC50 stands for the midpoint of a concentration-inhibition curve. Turning to `CO[C@H]1/C=C/O[C@@]2(C)Oc3c(C)c(O)c4c(O)c(c(/C=N/N5CCN(C)CC5)c(O)c4c3C2=O)NC(=O)/C(C)=C\C=C\[C@H](C)[C@H](O)[C@@H](C)[C@@H](O)[C@@H](C)[C@H](OC(C)=O)[C@@H]1C` [RIFAMPIN], the MIC90 is below 0.01 µg/mL in [7]; below 0.02 µg/mL in test [1] (setting [19]); 0.1 µg/mL (≈ 0.122 µM) in test [8]; 0.02 µg/mL in [9]; 0.03 µg/mL (≈ 0.0365 µM) in test [10]; 17.8 µg/mL (≈ 21.6 µM) in [2]. In addition, the MIC90 in test [11] was 0.02 µg/mL (≈ 0.0243 µM); in test [12] it was 0.1 µg/mL (≈ 0.122 µM); in [5], below 0.3 µg/mL; in test [4], 0.2 µg/mL (≈ 0.243 µM); in [13], 0.1 µg/mL (≈ 0.122 µM); in test [14], below 0.02 µg/mL. In test [15], the MIC90 was found to be 0.02 µg/mL (≈ 0.0243 µM). The molecule further yielded an MBC90 in [1] of 0.1 µg/mL (≈ 0.122 µM). Further, half-maximal inhibition in test [16] (IC50) required 143 µg/mL (≈ 174 µM).
For the molecule `CN[C@@H]1[C@H](O[C@H]2[C@H](O[C@H]3[C@H](O)[C@@H](O)[C@H](N=C(N)N)[C@@H](O)[C@@H]3N=C(N)N)O[C@@H](C)[C@]2(O)C=O)O[C@@H](CO)[C@H](O)[C@H]1O` [STREPTOMYCIN], the MIC90 in [1] (setting [19]) worked out at 0.3 µg/mL (≈ 0.516 µM); in test [8], 0.2 µg/mL (≈ 0.344 µM); in test [9], 0.8 µg/mL; in [10], 0.6 µg/mL (≈ 1.03 µM); in test [11], 0.4 µg/mL (≈ 0.688 µM); in [12], 0.3 µg/mL (≈ 0.516 µM). Further, the MIC90 in [5] is 0.1 µg/mL (≈ 0.172 µM); in test [13], 1 µg/mL (≈ 1.72 µM); in test [14] it was 0.6 µg/mL; in test [15], 0.3 µg/mL (≈ 0.516 µM).
Take `CN[C@H](CC(C)C)C(=O)N[C@H]1C(=O)N[C@@H](CC(N)=O)C(=O)N[C@H]2C(=O)N[C@H]3C(=O)N[C@H](C(=O)N[C@H](C(=O)O)c4cc(O)cc(O)c4-c4cc3ccc4O)[C@H](O)c3ccc(c(Cl)c3)Oc3cc2cc(c3O[C@@H]2O[C@H](CO)[C@@H](O)[C@H](O)[C@H]2O[C@H]2C[C@](C)(N)[C@H](O)[C@H](C)O2)Oc2ccc(cc2Cl)[C@H]1O` [VANCOMYCIN]: the MIC90 amounted to 0.1 µg/mL (≈ 0.069 µM) in test [7] and 2.3 µg/mL (≈ 1.59 µM) in test [4].
Regarding GENTAMICIN, the MIC>90 in [2] was found to be 0.5 µg/mL; in [17], 1.2 µg/mL; in test [6], 0.2 µg/mL; in test [18], 0.6 µg/mL.
